Key:
[1] = system: ppENK expression in pancreatic cancer cell lines PL3, CAPAN2, MiaPaca2 and Panc1; assay: RT-PCR analysis of ppENK expression after 5Aza-dC treatment; assay type: cell-based, human; conditions: 4 methylated cell lines (PL3, CAPAN2, MiaPaca2, Panc1), 5Aza-dC at a final concentration of 1 μM for 5 days, coamplified with GAPDH
Method: (§1) Five pancreatic cancer cell lines (PL3, PL8, CAPAN2, Panc1, and MiaPaca2) and four normal pancreata were used for RT-PCR analysis. The cell lines were treated with demethylating agent 5Aza-dC (Sigma Chemical Co.) at a final concentration of 1 μM for 5 days. Total RNA was prepared using TRIzol (Life Technologies, Inc.), reverse-transcribed and amplified. As a control for cDNA integrity, glyceraldehyde-3-phosphate dehydrogenase gene (GAPDH) was also amplified. Primer sequences for RT-PCR are listed in Table 3 and are available at http://pathology2.jhu.edu/pancreas/prim0425.htm, which website is incorporated herein by reference.
(§2) Partial methylation (˜50%) of the 5′ CpG island of Cyclin G in PL8 (FIG. 4C) was associated with decreased expression of Cyclin G by RT-PCR. The 5′ CpG island of Cyclin G was not methylated in a panel of normal pancreata. Cyclin G was expressed in 4 normal pancreata by RT-PCFR. […] Thus, hypermethylation of the 5′ CpG islands of Cyclin G and ppENK is coincides with decreased expression in pancreatic cancers.

[2] = system: Cyclin G expression in pancreatic cancer cell line PL8; assay: RT-PCR analysis of Cyclin G expression after 5Aza-dC treatment; assay type: cell-based, human; conditions: methylated cell line PL8, 5Aza-dC at a final concentration of 1 μM for 5 days, coamplified with GAPDH
Method: as §1, §2

[3] = listed as 5-aza-2′-deoxycytidine

Nc1ncn([C@H]2C[C@H](O)[C@@H](CO)O2)c(=O)n1 [5Aza-dC, 5-aza-2′-deoxycytidine]
ppENK expression by RT-PCR [1]: restored ppENK expression in all 4 cell lines | ppENK expression by RT-PCR [1, 3]: reversible | ppENK expression by RT-PCR ([1]; listed as 5 Aza-dC): restored the ppENK expression | Cyclin G expression by RT-PCR [2]: restored the expression of Cyclin G | Cyclin G expression by RT-PCR [2, 3]: reversible | Cyclin G expression by RT-PCR ([2]; listed as 5 Aza-dC): increased Cyclin G expression

— patent US7153653B2, “Differentially methylated sequences in pancreatic cancer” (The Johns Hopkins University School of Medicine, priority 2001, dated 2006)
